In this assay the target is T1, SHP2 protein (Homo sapiens, UniProt Q06124).
T1 sequence (Q06124 1-593): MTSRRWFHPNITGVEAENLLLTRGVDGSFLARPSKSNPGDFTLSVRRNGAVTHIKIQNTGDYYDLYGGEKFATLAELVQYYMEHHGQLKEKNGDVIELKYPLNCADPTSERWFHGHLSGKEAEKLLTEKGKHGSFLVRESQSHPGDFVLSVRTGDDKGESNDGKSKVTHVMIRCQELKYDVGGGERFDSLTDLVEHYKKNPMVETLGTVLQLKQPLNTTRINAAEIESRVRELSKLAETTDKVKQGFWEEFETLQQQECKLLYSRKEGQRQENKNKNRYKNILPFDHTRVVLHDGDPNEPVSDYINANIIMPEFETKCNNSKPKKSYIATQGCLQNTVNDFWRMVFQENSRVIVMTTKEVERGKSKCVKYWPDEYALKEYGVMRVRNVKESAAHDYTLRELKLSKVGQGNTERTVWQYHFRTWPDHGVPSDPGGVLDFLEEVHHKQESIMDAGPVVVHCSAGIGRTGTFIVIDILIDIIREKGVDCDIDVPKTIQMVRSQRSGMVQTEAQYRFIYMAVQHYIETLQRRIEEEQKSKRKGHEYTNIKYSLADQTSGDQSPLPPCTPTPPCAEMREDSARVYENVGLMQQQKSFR
The assay can be described thus: Degradation activity on SHP2 protein in MIA Paca-2 cells (Western blot, DC50). The class given is cell-based. The arrangement: endogenous in cells; host or cells: MIA Paca-2 cells. As to conditions: read-out: Degradation activity for differenct cell lines MIA Paca-2 (DC50). As to the method: (1) MV-411 cells were cultured in the cell culture medium, and then well-growing cells were selected and inoculated in a 12-well plate, with 1 mL/well and 1×10^6 cells/well. The plate was incubated overnight in a 5% CO2 cell incubator at 37° C.
(2) 10 mM storage solution of each drug was prepared using dimethylsulfoxide (DMSO). The stock solution was diluted gradually with DMSO before use, and then 1 μL of the compound solution was added to the cell culture well (to ensure that the DMSO concentration in the culture system was […]), so that the final drug concentration is 100 nM, 10 nM, 3 nM, 1 nM, 0.3 nM, and 0.1 nM. Two wells were set for each concentration. The plate was gently shaken and mixed. Additionally, negative control wells (containing an equal amount of DMSO) and positive control wells were included.
(3) After 24 hours of cultivation, the cells were lysed using RIPA cell lysate, and the proteins were extracted. The protein concentration was measured using a BCA assay kit. 5× concentrated protein buffer was loaded, heated at 100° C. for 5 min, and then the sample was stored at −20° C.
(4) For each well, 30 μg of protein was loaded to polyacrylamide gel for electrophoresis.
(5) The protein was transferred from polyacrylamide gel to PVDF membrane, and sealed at room temperature with 5% skimmed milk for 1 h, which was then incubated with the primary antibodies (Anti-SHP2 rabbit mAb and Anti-GAPDH rabbit mAb) at 4° C. overnight. The membrane was washed three times with TBST solution, 10 minutes for each time. After that, the membrane was incubated with the secondary antibodies (horseradish peroxidase labeled goat anti-rabbit IgG) at room temperature for 2 h, and then washed three times with TBST solution, 10 minutes for each time, followed by exposure.
(6) The images were analyzed with Image J grayscale, and the degradation ratio of protein bands in the test group was calculated, based on the negative control group (DMSO) (100%).
(7) Using the Dose-response-inhibition equation in the data processing software GraphPad Prism 8, the DC50 value was obtained (which represents the drug concentration corresponding to 50% degradation of the target protein).
Using similar methods and different cell lines, the degradation activity of the compound according to the present invention on SHP2 protein of different cell lines was tested under suitable culture conditions.
On the technique in general: Immunoblotting shows a protein as a band on a membrane.
The term DC50 denotes the midpoint of the concentration-degradation curve. As for `CC1(N)CCN(c2cnc(Sc3cccc(NC(=O)C4CCC(N5CC=C(c6ccc(C(=O)NCc7ccc8c(c7)CN(C7CCC(=O)NC7=O)C8=O)nc6)CC5)CC4)c3)cn2)CC1` (single isomer, unassigned) [Compound 300], the DC50 was greater than 1 µM.
`CC1(N)CCN(c2cnc(Sc3cccc(NC(=O)C4CCC(N5CC=C(c6ccc(C(=O)NCc7ccc8c(c7)CN(C7CCC(=O)NC7=O)C8=O)nc6)CC5)CC4)c3)cn2)CC1` (single isomer, unassigned) [Compound 301]: the DC50 was greater than 1 µM.
Then `CC1(N)CCN(c2cnc(Sc3cccc(NC(=O)C4CC45CCC(N4CC=C(c6ccc(C(=O)NCc7ccc8c(c7)CN(C7CCC(=O)NC7=O)C8=O)nc6)CC4)CC5)c3)cn2)CC1` (single isomer, unassigned) [Compound 314], with greater than 1 µM; and `CC1(N)CCN(c2cnc(Sc3cccc(NC(=O)C4CC45CCC(N4CC=C(c6ccc(C(=O)NCc7ccc8c(c7)CN(C7CCC(=O)NC7=O)C8=O)nc6)CC4)CC5)c3)cn2)CC1` (single isomer, unassigned) [Compound 315], with greater than 1 µM.
`CC1(N)CCN(c2cnc(Sc3cccc(NC(=O)C4CC45CCC(N4CC=C(c6ccc(C(=O)Nc7ccc8c(c7)CN(C7CCC(=O)NC7=O)C8=O)nc6)CC4)CC5)c3)cn2)CC1` (single isomer, unassigned) [Compound 316]: the DC50 is greater than 1 µM.
On to `CC1(N)CCN(c2cnc(Sc3cccc(NC(=O)C4CC45CCC(N4CC=C(c6ccc(C(=O)NCc7ccc8c(c7)CN(C7CCC(=O)NC7=O)C8=O)nn6)CC4)CC5)c3)cn2)CC1` (single isomer, unassigned) [Compound 318], for which the DC50 was greater than 1 µM.
Regarding `CC1(N)CCN(c2cnc(Sc3cccc(NC(=O)C4CC45CCC(N4CC=C(c6ccc(C(=O)NCc7ccc8c(c7)CN(C7CCC(=O)NC7=O)C8=O)nn6)CC4)CC5)c3)cn2)CC1` (single isomer, unassigned) [Compound 319], the DC50 is greater than 1 µM.
Then `CC1(N)CCN(c2cnc(Sc3cccc(NC(=O)C4CC45CCC(N4CC=C(c6ccc(C(=O)Nc7ccc8c(c7)CN(C7CCC(=O)NC7=O)C8=O)nn6)CC4)CC5)c3)cn2)CC1` (single isomer, unassigned) [Compound 320], with greater than 1 µM.
Then `CC1(N)CCN(c2cnc(Sc3cccc(NC(=O)C4CC45CCC(N4CC=C(c6ccc(C(=O)Nc7ccc8c(c7)CN(C7CCC(=O)NC7=O)C8=O)nn6)CC4)CC5)c3)cn2)CC1` (single isomer, unassigned) [Compound 321], with less than 0.1 µM.
Then `CC1(N)CCN(c2cnc(Sc3cccc(NC(=O)C4CC45CCC(N4CC=C(c6ccc(C(=O)N7CCN(c8ccc9c(c8)CN(C8CCC(=O)NC8=O)C9=O)CC7)nc6)CC4)CC5)c3)cn2)CC1` (single isomer, unassigned) [Compound 322], with greater than 1 µM.
On to `CC1(N)CCN(c2cnc(Sc3cccc(NC(=O)C4CC45CCC(N4CC=C(c6ccc(C(=O)N7CCN(c8ccc9c(c8)CN(C8CCC(=O)NC8=O)C9=O)CC7)nc6)CC4)CC5)c3)cn2)CC1` (single isomer, unassigned) [Compound 323], for which the DC50 was greater than 1 µM.
Then `O=C1CCC(N2Cc3cc(CNC(=O)c4ccc(N5CCC6(CN(CCCCCCC(=O)Nc7cccc(Sc8cnc(N9CCCCC9)cn8)c7)C6)C5)nn4)ccc3C2=O)C(=O)N1` (centres unmarked) [Compound 212], with greater than 1 µM.
Then `CC1(N)CCN(c2cnc(Sc3cccc(NC(=O)CCCCCOc4ccc(-c5ccc(C(=O)NCc6ccc7c(c6)CN(C6CCC(=O)NC6=O)C7=O)nc5)cc4)c3)cn2)CC1` (centres unmarked) [Compound 213], with greater than 1 µM.
Then `CC1(N)CCN(c2cnc(Sc3cccc(NC(=O)CCN4CC5(CCC(OCCNc6ccc(C(=O)NCc7ccc8c(c7)CN(C7CCC(=O)NC7=O)C8=O)nn6)CC5)C4)c3)cn2)CC1` (centres unmarked) [Compound 214], with greater than 1 µM.
With `CC1(N)CCN(c2cnc(Sc3cccc(NC(=O)CCCCCCN4CCC5(CC4)CC(=O)N(CC(=O)NCc4ccc6c(c4)CN(C4CCC(=O)NC4=O)C6=O)C5)c3)cn2)CC1` (centres unmarked) [Compound 215], the DC50 was greater than 1 µM.
Then `C[C@@H]1OCC2(CCN(c3cnc(Sc4cccc(NCc5ccc(CN6CCN(c7ccc(C(=O)NCc8ccc9c(c8)CN(C8CCC(=O)NC8=O)C9=O)nn7)CC6)cc5)c4)cn3)CC2)[C@@H]1N` (some centres unmarked) [Compound 253], with greater than 1 µM; and `CC1(N)CCN(c2cnc(Sc3cccc(NCc4ccc(CN5CCN(c6ccc7c(c6)CN(C6CCC(=O)NC6=O)C7=O)CC5)cc4)c3)cn2)CC1` (centres unmarked) [Compound 254], with greater than 1 µM.
Then `C[C@@H]1OCC2(CCN(c3cnc(Sc4cccc(NCc5ccc(CN6CCN(c7ccc8c(c7)CN(C7CCC(=O)NC7=O)C8=O)CC6)cc5)c4)cn3)CC2)[C@@H]1N` (some centres unmarked) [Compound 255], with greater than 1 µM; and `CC1(N)CCN(c2cnc(Sc3cccc(NCC4CCC(N5CCN(c6ccc7c(c6)CN(C6CCC(=O)NC6=O)C7=O)CC5)CC4)c3)cn2)CC1` (centres unmarked) [Compound 256], with greater than 1 µM; and `CC1(N)CCN(c2cnc(Sc3cccc(NCc4ccc(N5CCN(c6ccc(C(=O)NCc7ccc8c(c7)C(=O)N(C7CCC(=O)NC7=O)C8)nn6)CC5)c(F)c4)c3)cn2)CC1` (centres unmarked) [Compound 258], with greater than 1 µM.
Then `CC1(N)CCN(c2cnc(Sc3cccc(NC(=O)c4ccc(N5CCN(c6ccc(C(=O)NCc7ccc8c(c7)C(=O)N(C7CCC(=O)NC7=O)C8)nn6)CC5)c(F)c4)c3)cn2)CC1` (centres unmarked) [Compound 260], with greater than 1 µM; and `C[C@@H]1OCC2(CCN(c3cnc(Sc4cccc(NC(=O)c5ccc(N6CCN(c7ccc(C(=O)NCc8ccc9c(c8)C(=O)N(C8CCC(=O)NC8=O)C9)nn7)CC6)c(F)c5)c4)cn3)CC2)[C@@H]1N` (some centres unmarked) [Compound 261], with less than 0.1 µM.
Take `C[C@@H]1OCC2(CCN(c3cnc(Sc4cccc(NC(=O)CCCN5CCN(c6ccc(C(=O)NCc7ccc8c(c7)C(=O)N(C7CCC(=O)NC7=O)C8)nn6)CC5)c4)cn3)CC2)[C@@H]1N` (some centres unmarked) [Compound 262]: the DC50 is greater than 1 µM.
Then `C[C@@H]1OCC2(CCN(c3cnc(Sc4cccc(NC(=O)COc5ccc(N6CCN(c7ccc(C(=O)NCc8ccc9c(c8)CN(C8CCC(=O)NC8=O)C9=O)nn7)CC6)cc5)c4)cn3)CC2)[C@@H]1N` (some centres unmarked) [Compound 263], with less than 0.1 µM; and `CC1(N)CCN(c2cnc(Sc3cccc(NC(=O)COc4ccc(N5CCN(c6ccc(C(=O)NCc7ccc8c(c7)CN(C7CCC(=O)NC7=O)C8=O)nn6)CC5)cc4)c3)cn2)CC1` (centres unmarked) [Compound 265], with less than 0.1 µM.
Then `CC1(N)CCN(c2cnc(Sc3cccc(NC(=O)CCCCN4CCC(N5CCN(c6ccc(C(=O)NCc7ccc8c(c7)CN(C7CCC(=O)NC7=O)C8=O)nn6)CC5C(F)(F)F)C4)c3)cn2)CC1` (centres unmarked) [Compound 267], with less than 0.1 µM; and `CC1(N)CCN(c2cnc(Sc3cccc(NC(=O)C4CC(N5CCN(c6ccc7c(c6)C(=O)N(C6CCC(=O)NC6=O)C7=O)CC5)C4)c3)cn2)CC1` (centres unmarked) [Compound 268], with greater than 1 µM.
With `CC1(N)CCN(c2cnc(Sc3cccc(NC(=O)C4CC(N5CCN(c6ccc7c(c6)CN(C6CCC(=O)NC6=O)C7=O)CC5)C4)c3)cn2)CC1` (centres unmarked) [Compound 269], the DC50 is greater than 1 µM.
Then `CC1(N)CCN(c2cnc(Sc3cccc(NC(=O)C4CCC(N5CCN(c6ccc7c(c6)C(=O)N(C6CCC(=O)NC6=O)C7=O)CC5)CC4)c3)cn2)CC1` (centres unmarked) [Compound 270], with greater than 1 µM; and `CC1(N)CCN(c2cnc(Sc3cccc(NC(=O)C4CCC(N5CCN(c6ccc7c(c6)CN(C6CCC(=O)NC6=O)C7=O)CC5)CC4)c3)cn2)CC1` (centres unmarked) [Compound 271], with greater than 1 µM.
Then `CC1(N)CCN(c2cnc(Sc3cccc(NC(=O)C4CC45CCN(c4ccc(CN6CCN(c7ccc8c(c7)CN(C7CCC(=O)NC7=O)C8=O)CC6)cc4F)CC5)c3)cn2)CC1` (centres unmarked) [Compound 272], with greater than 1 µM.
Then `C[C@@H]1OCC2(CCN(c3cnc(Sc4cccc(NC(=O)C5CC56CCN(c5ccc(CN7CCN(c8ccc9c(c8)CN(C8CCC(=O)NC8=O)C9=O)CC7)cc5F)CC6)c4)cn3)CC2)[C@@H]1N` (some centres unmarked) [Compound 273], with greater than 1 µM.

These data come from US20240383908A1, “SYNTHESIS AND APPLICATION OF PHOSPHATASE DEGRADER” (HINOVA PHARMACEUTICALS INC., priority 2021, published 2024).
